One compound from patent US20240174692A1, “PYRIMIDINE AROMATIC RING COMPOUNDS” (Medshine Discovery Inc., priority 2021, published 2024) can be followed below.

One data set deals with p-ERK in GP2D cells. The experiment in a line: Assay of p-ERK inhibition in GP2D cells (HTRF). The data set is classed as cell-based. The settings on record: Homo sapiens, 1 hour incubation. On the procedure: 2. Assay Process • 1) GP2D cells were inoculated in a transparent 96-well cell culture plate, and each well contained 80 μL of cell suspension and 8000 cells. The cell plate was inoculated in a carbon dioxide incubator at 37° C. overnight; • 2) 2 μL of the compound was weighed and added to 78 μL of the cell medium. After the mixture was mixed thoroughly, 20 μL of the solution of compound was weighed and added to the corresponding well of the cell plate. The cell plate was placed back to the carbon dioxide incubator and incubated for another 1 hour; • 3) After completion of the incubation, the cell supernatant was discarded. 50 μL of 1× cell lysate was added to each well. The mixture was incubated with shaking at room temperature for 30 minutes; • 4) Phospho-ERK1/2 Eu Cryptate antibody and Phospho-ERK1/2 d2 antibody were diluted 20-fold with detection buffer; • 5) 16 μL of cell lysate supernatant was weighed and added into each well of a new 384 white microwell plate, and then 2 μL of the diluted solution of Phospho-ERK1/2 Eu Cryptate antibody and 2 μL of the diluted solution of Phospho-ERK1/2 d2 antibody dilution were added. The mixture was incubated at room temperature for at least 4 hours; • 6) After completion of the incubation, HTRF was read with multi-label analyzer: excitation: 320 nm, emission: 615 nm, 665 nm; • 7). IC50 of the compounds to be assayed was calculated.

For data set [1], the target named is KRAS^G12D binding to c-Raf (Homo sapiens (Human), UniProt P01116, G12D). The data set is described as follows: SOS1-mediated binding of KRAS^G12D to effector protein c-Raf (TR-FRET). The data set is classed as biochemical. Background: Time-resolved FRET reads energy transfer from a long-lived donor to a nearby acceptor.
The subject of data set [2] is plasma protein. The experiment in a line: Plasma protein binding (PPB), equilibrium dialysis, H plasma. The data set is classed as in vitro ADME, human. As to conditions: 2 μM, 4 hr dialysis. As to the method:
(§1) Assay procedure: 995 μL of blank plasma of various genera were weighed, and 5 μL of assay compound working solution (400 μM) or warfarin working solution (400 μM) was added so that the final concentrations of the assay compound and warfarin in plasma sample were each 2 μM. The samples were mixed thoroughly. The final concentration of DMSO (the organic phase) was 0.5%. 50 μL of the plasma samples of the assay compound and warfarin were pipetted to a sample receiving plate (in triplicate), and the corresponding volume of corresponding blank plasma or buffer was added immediately, so that the final volume in each sample well was 100 μL, wherein the volume ratio of plasma:dialysis buffer was 1:1. 500 μL of stop solution was then added to these samples. These samples were used as T0 samples for determination of recovery and stability. […] All samples were subjected to protein precipitation, and then analyzed by LC/MS/MS. Bound rate and recovery rate of protein were calculated using the following formulae: % Unbound=100*F/T % Bound=100−% Unbound, % Recovery=100*(F+T)/T0 (wherein F is the peak area ratio of the compound in the dialysate after 4 h of dialysis; T is the peak area ratio of the compound in the plasma after 4 h of dialysis; T0 is the peak area ratio of the compound in the plasma sample at time zero).

The test system of data set [3] is plasma protein. The data set is described as follows: Plasma protein binding (PPB), equilibrium dialysis, D plasma. The data set is classed as in vitro ADME, dog. The settings on record: 2 μM, 4 hr dialysis. As to the method: as §1
Data set [4] relates to plasma protein. The data set is described as follows: Plasma protein binding (PPB), equilibrium dialysis, C plasma. The class given is in vitro ADME, monkey. As to conditions: 2 μM, 4 hr dialysis. On the procedure:
as §1
In general terms: Equilibrium dialysis compares concentrations on both sides of a semipermeable membrane.

The subject of data set [5] is plasma protein. The data set is described as follows: Plasma protein binding (PPB), equilibrium dialysis, R plasma. The data set is classed as in vitro ADME, rat. The settings on record: 2 μM, 4 hr dialysis. As to the method: as §1
Data set [6] has as its system plasma protein. The data set is described as follows: Plasma protein binding (PPB), equilibrium dialysis, M plasma. The class given is in vitro ADME, mouse. The settings on record: 2 μM, 4 hr dialysis. As to the method:
as §1

A short description of data set [7]: Pharmacokinetic evaluation of compounds in mice. The class given is in vivo, CD-1 mice. As to conditions: CD-1 male mice. As to the method:
Purpose of assay: To assay the pharmacokinetic data of the compounds in CD-1 mice in vivo.
Compounds were mixed with vehicle 5% DMSO/95% (10% HP-β-CD aqueous solution), and the mixture was vortexed and sonicated to give 0.2 mg/mL-0.3 mg/mL clear solutions. CD-1 male mice aged 7 to 10 weeks were selected, and the candidate compound solution was administered intravenously. Whole blood was collected for a certain period of time to prepare the plasma. The drug concentration was analyzed by LC-MS/MS method and pharmacokinetic parameters were calculated by Phoenix WinNonlin software (Pharsight, USA).
Compounds were mixed with vehicle 5% DMSO/95% (10% HP-β-CD in water), and the mixture was vortexed and sonicated to give 1.6 mg/mL to 4.0 mg/mL clear solutions. CD-1 male mice aged 7 to 10 weeks were selected, and the candidate compound solution was orally administered. Whole blood was collected for a certain period of time to prepare plasma. The drug concentration was analyzed by LC-MS/MS method, and pharmacokinetic parameters were calculated by Phoenix WinNonlin software (Pharsight, USA).

Data set [8] concerns human colon cancer GP2D xenograft tumor. The data set is described as follows: In vivo pharmacodynamic study, GP2D xenograft tumor model in Balb/c nude mouse. The settings on record: PO. On the procedure:
An xenograft tumor model in GP2D Balb/c nude mouse:
Assay method: A Balb/c nude mouse model of subcutaneously xenograft tumor of human colon cancer GP2D cells was established. 0.2 mL (2×10^6) of GP2D cells (Matrigel was added, and volume ratio was 1:1) were inoculated subcutaneously on the right back of each mouse. When the average tumor volume reached 149 mm^3, the administration was started by group, with 6 mice in each group. On the day of the assay, the animals were administered the corresponding drugs according to the corresponding groups. The first group G1 was set as a negative control group, which was given 5% DMSO+95%(10% HP-β-CD) alone by gavage administration. The second group G2 to the fifth group G5 were given compound 014, and the dosage and protocol of administration were shown in Table 19.
During the assay, the body weight of animals and the tumor size were measured twice a week. Meanwhile, clinical symptoms of animals were observed and recorded every day. Each administration was referenced to the most recent body weight of animals.
The length (a) and width (b) of a tumor were measured with a digital vernier caliper. The calculation formula of tumor volume (TV) was: TV=a×b^2/2.

The structures appear in SMILES notation. pIC50: −log10 of the molar value.

Sequence of KRAS^G12D binding to c-Raf (P01116-2 other isoform, or with tags, fused parts or gaps G12D): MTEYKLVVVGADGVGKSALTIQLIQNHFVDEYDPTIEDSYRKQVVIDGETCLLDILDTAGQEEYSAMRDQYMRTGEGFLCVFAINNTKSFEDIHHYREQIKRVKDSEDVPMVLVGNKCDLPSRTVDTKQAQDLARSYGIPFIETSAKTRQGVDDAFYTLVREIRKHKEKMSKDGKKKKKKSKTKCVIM

As usually defined, the pIC50 is the negative decadic logarithm of the IC50, by convention in mol/L. A lower pIC50 goes with a large IC50. A word on the AUC(0-inf): it is the area under the concentration-time curve extrapolated to infinity. The low end stands for less exposure, the high end for more exposure. In general, Vd refers to the apparent volume that relates the amount in the body to the concentration in plasma or blood. The low end stands for confinement near the circulation, the high end for extensive tissue distribution. As a reminder, the clearance is the volume of plasma or blood freed of the substance per unit of time. Read a low clearance as a low capacity for elimination. For orientation: half-life means the time needed for the level to fall by half in the phase considered. Higher therefore signals slow loss. In general, Cmax refers to the highest concentration seen after dosing. A word on the bioavailability: it is dose-corrected exposure relative to a reference, in per cent. In the case of `C#Cc1c(F)ccc2cc(N)cc(-c3ccc4c(N5CC6CCC(C5)N6)nc(OC[C@@]56CCCN5C[C@H](F)C6)nc4c3F)c12` [Compound 014], in the data set with p-ERK in GP2D cells, the pIC50 was 9.37. The same compound showed a pIC50 in data set [1] of 7.92. Further, the “Unbound PPB H” value in the data set with plasma protein [2] came out at 18.5%. In addition, in the data set on plasma protein [3], the “Unbound PPB D” value worked out at 3.0%. For the same compound, in the data set with plasma protein [4], the “Unbound PPB C” value was found to be 2.8%. Besides, the “Unbound PPB R” value with plasma protein [5] is listed as 2.0%. The “Unbound PPB M” value in the data set on plasma protein [6] is reported as 4.5%. Moreover, the AUCu in [7] (PO, 16.0 mg/kg, AUCu = AUC0-inf *Unbound PPB (Mouse)) is 0.0671 µM·h. In addition, in [7] (mouse, plasma, IV, 1.28 mg/kg), the AUC(0-inf) was 0.565 µM·h, the C0 stood at 953 nM, the Vd was found to be 25.6 L/kg and the clearance was determined as 77 mL/min/kg. Also, the half-life in data set [7] (mouse, plasma, IV, 1.28 mg/kg) is 5.7 h. In data set [7] (mouse, plasma, PO, 16.0 mg/kg), this compound had an AUC(0-inf) of 1.49 µM·h, a Cmax of 524 nM, a bioavailability of 20.5% and a half-life of 6 h. Further, in data set [8] (G2, 25 mg/kg, BID*22, at day 14), the “Tumor volume inhibition rate TGI” value is given as 84.2%. For the same compound, the “Tumor volume inhibition rate TGI” value in [8] (G3, 50 mg/kg, BID*22, at day 14) turned out to be 89.4%. In addition, the “Tumor volume inhibition rate TGI” value in data set [8] (G4, 150 mg/kg, BID*22, at day 14) worked out at 97.3%. For the same compound, the “Tumor volume inhibition rate TGI” value in data set [8] (G5, 150 mg/kg, QD*22) was 91.4%.
